# In PubChem BioAssay AID651581 (Sanford-Burnham Center for Chemical Genomics, 2012):
# pIC50: −log10 of the molar value. Calls of active or inactive are those of the source. No rule for the calls is given here.
# Legend:
# [1] = biological target: Endothelial PAS domain-containing protein 1 (Homo sapiens) (UniProt Q99814); assay: HIF-2a and HIF-1a reporter inhibition panel, dose response, selectivity assay for HIF-2a inhibitor project, cell-based, luminescence (AID 651581)
# [2] = biological target: Hypoxia-inducible factor 1-alpha (Homo sapiens) (UniProt Q16665); assay: as above; conditions: HIF-1a
# Chain of Hypoxia-inducible factor 1-alpha (Homo sapiens) (Q16665 whole entry, looked up): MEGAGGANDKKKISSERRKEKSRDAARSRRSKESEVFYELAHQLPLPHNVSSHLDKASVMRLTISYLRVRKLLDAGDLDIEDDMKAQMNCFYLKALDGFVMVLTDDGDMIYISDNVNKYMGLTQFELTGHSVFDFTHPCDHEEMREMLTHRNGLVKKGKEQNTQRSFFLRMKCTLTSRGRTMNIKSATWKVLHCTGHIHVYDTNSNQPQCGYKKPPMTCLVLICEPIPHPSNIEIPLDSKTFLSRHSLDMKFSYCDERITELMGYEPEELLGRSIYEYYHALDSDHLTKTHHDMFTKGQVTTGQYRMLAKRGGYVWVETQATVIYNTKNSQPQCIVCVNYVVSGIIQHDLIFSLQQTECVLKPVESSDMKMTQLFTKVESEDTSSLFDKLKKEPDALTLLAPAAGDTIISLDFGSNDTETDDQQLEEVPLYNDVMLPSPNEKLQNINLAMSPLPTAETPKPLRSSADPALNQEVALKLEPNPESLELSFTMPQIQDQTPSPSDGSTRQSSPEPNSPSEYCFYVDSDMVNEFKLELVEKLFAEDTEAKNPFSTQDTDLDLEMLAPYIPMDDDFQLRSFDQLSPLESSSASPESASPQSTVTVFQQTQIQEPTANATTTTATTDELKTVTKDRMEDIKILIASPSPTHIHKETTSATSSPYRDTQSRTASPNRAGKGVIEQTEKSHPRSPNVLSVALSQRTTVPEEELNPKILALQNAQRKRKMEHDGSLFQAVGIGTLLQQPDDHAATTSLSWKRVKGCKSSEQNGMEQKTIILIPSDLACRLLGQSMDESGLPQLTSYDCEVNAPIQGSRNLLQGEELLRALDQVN
SMILES,"IC50 ([1]; HIF-2a PANC, mean of runs)","pIC50 ([1]; HIF-2a PANC, run 1)","pIC50 ([1]; HIF-2a PANC, run 2)","pIC50 ([1]; HIF-2a, mean of runs)","pIC50 ([1]; HIF-2a, run 1)","pIC50 ([1]; HIF-2a, run 2)",pIC50 ([2]; run 1),pIC50 ([2]; run 2),pIC50 ([2]; mean of runs),"IC50 ([1]; HIF-2a, mean of runs)",IC50 ([2]; mean of runs),"pIC50 ([1]; HIF-2a PANC, mean of runs)"
Cc1cc(C)c(C)c(S(=O)(=O)ON2C(=O)c3ccccc3C2=O)c1C,inactive,4.29,4.66,5.06,5.05,5.07,< 4.00,< 4.00,,,,
COCCn1c(C)cc(C(=O)CSc2nnc3ccccn23)c1C,inactive,4.09,4.51,5.13,5.13,5.13,4.54,4.58,4.56,,,
O=C(Nc1cc(S(=O)(=O)N2CCOCC2)ccc1Cl)c1cc([N+](=O)[O-])ccc1Cl,,< 4.00,4.09,,4.82,4.86,4.62,4.75,,inactive,inactive,
Cc1ccc(C(C)C)c(OCc2ccc(C(=O)N/N=C/c3ccc(C(=O)O)cc3)cc2)c1,,6.29,6.61,6.35,6.38,6.32,< 4.00,< 4.00,,,,6.42
O=Cc1ccc(-c2cccs2)s1,> 99 µM (inactive),< 4.00,< 4.00,5.26,5.26,5.25,< 4.00,< 4.00,,,,
O=C(Nc1ccc(NC(=O)c2ccco2)cc1)c1ccc2c(c1)OCCO2,,4.99,4.91,5.11,5.10,5.13,< 4.00,4.07,,,,4.95
COc1cc(N2C(=O)C=CC2=O)c(OC)cc1Cl,inactive,4.42,4.34,5.07,5.06,5.08,4.48,4.39,4.43,,,
N#Cc1c(NC(=O)CSc2ncn[nH]2)sc2c1CCCCC2,,> 6.72,> 5.00,> 6.52,> 6.52,> 6.52,< 4.00,5.83,,,,> 6.72
Cc1c(CCC(=O)N[C@@H](CC(C)C)C(=O)O)c(=O)oc2cc3oc4c(c3cc12)CCCC4,,5.59,5.53,5.79,5.79,5.79,5.58,5.39,,,inactive,5.56
COc1ccc(/C=C2\SC(=O)N(CCNC(=O)Cn3[nH]c(=O)c4ccccc4c3=O)C2=O)cc1,,5.07,5.15,,4.92,4.88,5.15,4.76,,inactive,inactive,5.11
Cc1csc(NC(=O)c2cn3ccccc3n2)n1,,4.69,4.83,5.10,5.12,5.08,4.93,4.90,,,inactive,4.76
CC(C)c1ccc(/C=N/Nc2ccc(C(=O)O)cc2)cc1,,> 5.52,> 6.00,,5.10,> 6.72,4.55,4.66,4.61,,,> 6.00
CC(=O)Nc1ccc(Oc2sc(C(=O)c3ccccc3)c(N)c2C#N)cc1,inactive,4.33,4.18,,4.76,4.96,4.56,4.54,,inactive,inactive,
CCOC(=O)Cc1csc(N/N=C/c2ccc(C(F)(F)F)cc2)n1,,6.25,6.06,,< 4.00,6.66,> 5.00,< 4.00,,,,6.15
O=C(c1ccccc1)c1cc(Cl)ccc1N1C(=O)C=CC1=O,,4.60,< 4.00,5.16,5.15,5.17,4.26,4.21,4.23,,,
Cc1ccc(C)c(S(=O)(=O)ON2C(=O)c3ccccc3C2=O)c1,> 99 µM (inactive),< 4.00,< 4.00,5.07,5.07,5.08,< 4.00,< 4.00,,,,
CC(=O)N/N=C\c1cccc(OC/C=C/c2ccccc2)c1,> 99 µM (inactive),< 4.00,< 4.00,> 5.00,> 5.00,> 4.52,< 4.00,< 4.00,,,,
COc1cc(OC)cc(-c2nnc(Nc3nc4c(F)cccc4s3)o2)c1,,5.14,5.28,5.50,5.39,5.66,< 4.00,< 4.00,,,,5.20

SMILES,"IC50 ([1]; HIF-2a PANC, mean of runs)","pIC50 ([1]; HIF-2a PANC, run 1)","pIC50 ([1]; HIF-2a PANC, run 2)","pIC50 ([1]; HIF-2a, mean of runs)","pIC50 ([1]; HIF-2a, run 1)","pIC50 ([1]; HIF-2a, run 2)",pIC50 ([2]; run 1),pIC50 ([2]; run 2),pIC50 ([2]; mean of runs),"IC50 ([1]; HIF-2a, mean of runs)",IC50 ([2]; mean of runs),"pIC50 ([1]; HIF-2a PANC, mean of runs)"
CC(C)(C)c1ccc(-c2noc(CCC(=O)NCC3CCCO3)n2)cc1 (stereo not drawn),,> 5.52,> 5.00,> 5.00,> 5.00,> 5.00,< 4.00,< 4.00,,,,> 5.52
CC(C)(C)c1ccc(-c2noc(CCC(N)=O)n2)cc1,,> 6.00,> 6.52,> 6.52,> 6.52,> 6.52,< 4.00,< 4.00,,,,> 6.52
CC(=O)Nc1ccc(NC(=O)c2ccc(-c3ccnn3C)c3ccoc23)cc1,,5.69,5.78,6.07,6.03,6.11,5.41,< 4.00,,,,5.73
C=C1C(=O)OC2CC3(C)OC3C3OC3C3=CC(OC3=O)C12 (stereo not drawn),,< 4.00,4.22,,4.94,4.99,4.47,4.41,4.44,inactive,,
NCCN1C(=O)S/C(=C\c2ccc3c(c2)OCO3)C1=O,inactive,5.03,5.36,5.95,5.94,5.96,5.21,5.25,5.23,,,
CCOC(=O)c1cc(-c2csc(-c3ccc(C(C)(C)C)cc3)n2)on1,> 99 µM (inactive),< 4.00,< 4.00,5.32,5.32,5.32,4.16,4.37,4.25,,,
N=c1nc(SCCC(=O)O)ss1,inactive,4.51,4.40,5.20,5.20,5.19,5.11,4.84,,,inactive,
CCOC(=O)CNC(=O)CSc1nnc(NC(=O)c2ccc(C)cc2)s1,inactive,4.20,4.59,5.02,4.93,5.12,< 4.00,< 4.00,,,,
COC(=O)CSc1nnc(-c2sc3ccccc3c2Cl)o1,,5.36,5.25,5.63,5.68,5.58,5.64,5.60,,,inactive,5.30
Cc1cccc(NC(=S)NNc2ncc(C(F)(F)F)cc2Cl)c1,,5.64,5.77,5.05,5.05,5.04,4.48,4.57,4.52,,,5.70
COc1cc(/C=C/[N+](=O)[O-])ccc1O,> 99 µM (inactive),< 4.00,< 4.00,,4.93,4.99,4.60,4.55,,inactive,inactive,
Cc1nc2cc(-c3ccc(Cl)cc3)nn2c(C)c1CCC(=O)NCc1ccco1,,6.11,6.10,5.84,5.84,5.84,5.50,5.55,,,inactive,6.10
COc1ccc(CNC(=O)CCc2c(C)nc3cc(-c4ccccc4OC)nn3c2C)cc1,,< 4.00,4.93,5.03,5.00,5.07,4.57,5.17,,,inactive,
CNC(=O)NC(=O)COC(=O)CCCSc1nc2ccccc2s1,,4.80,5.25,5.30,5.25,5.36,5.21,5.09,,,inactive,4.97
c1c2c(cc3sc(N4CCOCC4)nc13)OCCO2,,4.70,4.84,,> 4.52,> 4.52,4.95,4.74,,< 30 µM (inactive),inactive,4.76
CC(=O)Nc1ccc(OCC(=O)c2ccc(C)cc2C)cc1,,5.52,5.27,5.61,5.56,5.66,5.34,4.06,4.34,,,5.38
Nc1nc2ccc(S(=O)(=O)c3ccc4nc(N)sc4c3)cc2s1,> 99 µM (inactive),< 4.00,< 4.00,,4.83,4.83,4.14,< 4.00,,inactive,,
COc1ccc(OCc2cccc(C(=O)NN)c2)cc1,> 99 µM (inactive),< 4.00,< 4.00,5.10,5.11,5.09,< 4.00,< 4.00,,,,
